Values quoted from earlier work as cited in patent EP0086468A2, “Oral anti-diabetic preparation” (HOECHST UK LIMITED, priority 1982, dated 1983).

Test system: plasma glucose
Conditions: intravenous bolus injection, published data

COc1ccc(Cl)cc1C(=O)NCCc1ccc(S(=O)(=O)NC(=O)NC2CCCCC2)cc1 [glibenclamide]
nadir in plasma glucose levels, time after injection: about 40 minutes
